Experimental data as given in ChEMBL document CHEMBL1150279, “Non-peptide gonadotropin-releasing hormone receptor antagonists” (J Med Chem, 2008).

Experiments:
[1] = biological target: T1, Gonadotropin-releasing hormone receptor (Homo sapiens, UniProt P30968); assay: (§1) Binding affinity at human GnRH receptor
T1 sequence (P30968 whole entry): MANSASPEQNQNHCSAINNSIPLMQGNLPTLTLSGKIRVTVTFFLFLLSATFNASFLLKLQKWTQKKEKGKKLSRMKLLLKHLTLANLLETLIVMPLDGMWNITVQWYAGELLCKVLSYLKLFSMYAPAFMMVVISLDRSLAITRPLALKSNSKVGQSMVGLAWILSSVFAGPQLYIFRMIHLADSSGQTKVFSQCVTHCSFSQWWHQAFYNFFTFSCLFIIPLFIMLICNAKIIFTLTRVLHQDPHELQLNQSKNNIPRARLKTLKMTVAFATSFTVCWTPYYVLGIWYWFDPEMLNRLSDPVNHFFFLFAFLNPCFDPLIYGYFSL

[2] = test system: Cynomolgus monkey; assay: Suppression of circulating luteinizing hormone in cynomolgus monkey at 30 mg/kg, po relative to baseline; type: functional, Macaca fascicularis
[3] = Cmax in healthy male human at 200 mg; type: ADME, organism-based; parameters: dose 200 mg; conditions: in vivo
[4] = Cmax in healthy male human at 10 mg; type: ADME, organism-based; parameters: dose 10 mg; conditions: in vivo
[5] = test system: Cynomolgus monkey; assay: Suppression of circulating luteinizing hormone in cynomolgus monkey at 10 mg/kg, po relative to baseline; type: functional, Macaca fascicularis
[6] = AUC (0 to 8 hrs) in healthy male human at 10 mg; type: ADME, organism-based; parameters: dose 10 mg, time < 8 hr; conditions: plasma
[7] = Inhibition of circulating luteinizing hormone in cynomolgus monkey pituitary cells; type: functional, Macaca fascicularis, Pituitary gland cell
[8] = AUC (0 to 8 hrs) in healthy male human at 200 mg; type: ADME, organism-based; parameters: dose 200 mg, time < 8 hr; conditions: plasma
[9] = Binding affinity at cynomolgus monkey GnRH receptor expressed in CHO cells; type: cell-based, Macaca fascicularis
[10] = AUC (0 to 6 hrs) in cynomolgus monkey at 10 mg/kg, po; type: ADME, organism-based, Macaca fascicularis; parameters: time < 6 hr, dose 10 mg/kg, route oral; conditions: plasma
[11] = Activity at cynomolgus monkey GnRH receptor expressed in CHO cells assessed as inhibition of arachidonic acid release; type: cell-based; conditions: Macaca fascicularis
[12] = biological target: T1, Gonadotropin-releasing hormone receptor; assay: Binding affinity at human GnRH receptor by competition binding assay
[13] = biological target: T2, Gonadotropin-releasing hormone receptor (Homo sapiens) (UniProt P30968); assay: as §1
T2 sequence (whole entry): T1 sequence (P30968 whole entry)

[14] = biological target: T3, Gonadotropin-releasing hormone receptor (Macaca mulatta, UniProt Q8SPZ1); assay: Binding affinity at monkey GnRH receptor
T3 sequence (Q8SPZ1 whole entry): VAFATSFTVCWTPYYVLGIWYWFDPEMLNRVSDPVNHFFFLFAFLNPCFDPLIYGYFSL

[15] = biological target: T3, Gonadotropin-releasing hormone receptor; assay: Activity at rhesus monkey GnRH receptor by inositol phosphate functional assay
[16] = Binding affinity to alpha1 adrenergic receptor
[17] = biological target: T4, Gonadotropin-releasing hormone receptor (Rattus norvegicus, UniProt P30969); assay: Binding affinity at rat GnRH receptor by whole cell binding assay
T4 sequence (P30969 whole entry): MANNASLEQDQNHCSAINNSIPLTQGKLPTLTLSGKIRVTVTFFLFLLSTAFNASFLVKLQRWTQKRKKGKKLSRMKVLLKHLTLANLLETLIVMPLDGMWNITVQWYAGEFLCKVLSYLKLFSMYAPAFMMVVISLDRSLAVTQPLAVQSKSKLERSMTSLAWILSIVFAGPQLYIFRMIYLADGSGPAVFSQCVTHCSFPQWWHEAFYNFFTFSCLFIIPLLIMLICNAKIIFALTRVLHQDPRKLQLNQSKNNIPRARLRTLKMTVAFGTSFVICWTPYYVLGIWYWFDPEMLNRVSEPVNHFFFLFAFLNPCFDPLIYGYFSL

[18] = biological target: 5-hydroxytryptamine receptor 2B (Homo sapiens) (UniProt P41595); assay: Binding affinity to 5HT2B receptor
5-hydroxytryptamine receptor 2B (Homo sapiens), sequence (P41595 whole entry): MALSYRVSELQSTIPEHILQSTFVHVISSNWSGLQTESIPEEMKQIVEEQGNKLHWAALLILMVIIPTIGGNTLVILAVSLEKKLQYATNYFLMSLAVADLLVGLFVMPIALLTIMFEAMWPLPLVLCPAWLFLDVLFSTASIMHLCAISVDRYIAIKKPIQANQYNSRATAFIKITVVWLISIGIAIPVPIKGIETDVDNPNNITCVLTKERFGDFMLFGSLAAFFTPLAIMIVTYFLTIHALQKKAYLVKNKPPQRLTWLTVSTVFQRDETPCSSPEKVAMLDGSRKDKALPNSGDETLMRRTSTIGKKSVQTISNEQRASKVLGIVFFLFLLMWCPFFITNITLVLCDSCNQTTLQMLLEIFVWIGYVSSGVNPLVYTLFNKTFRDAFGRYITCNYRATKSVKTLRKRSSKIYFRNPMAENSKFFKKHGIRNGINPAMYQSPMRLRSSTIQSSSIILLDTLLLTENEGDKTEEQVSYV

[19] = biological target: T1, Gonadotropin-releasing hormone receptor; assay: Binding affinity at human GnRH receptor by calcium mobilization assay; type: functional
[20] = Oral bioavailability in monkey; type: ADME, organism-based, Macaca mulatta; conditions: rhesus monkey, in vivo
[21] = biological target: T4, Gonadotropin-releasing hormone receptor; assay: Binding affinity at rat GnRH receptor by competition binding assay
[22] = test system: Plasma; assay: Protein binding in rat plasma; type: ADME, cell-free
[23] = Oral bioavailability in rat; type: ADME, organism-based; conditions: in vivo
[24] = biological target: T4, Gonadotropin-releasing hormone receptor; assay: Binding affinity at rat GnRH receptor
[25] = biological target: T4, Gonadotropin-releasing hormone receptor; assay: Antagonist activity at rat GnRH receptor assessed as luteinizing hormone release in rat pituitary cells; type: functional, cell-based, Pituitary gland cell; conditions: read-out: pA2 (converted)
[26] = test system: Rattus norvegicus; assay: Suppression of circulating luteinizing hormone in rat at 110 mg/kg, po relative to control; type: functional
[27] = test system: Rhesus monkey; assay: Suppression of circulating luteinizing hormone in monkey; type: functional, Macaca mulatta
[28] = Half life in postmenopausal women at 5 to 200 mg, po; type: ADME, organism-based; conditions: female, human, in vivo
[29] = Tmax in postmenopausal women at 5 to 200 mg, po; type: ADME, organism-based; conditions: female, human, in vivo

Compound: COc1cccc(-n2c(=O)c(Cc3c(F)cccc3F)nn(C[C@H](N)c3ccccc3)c2=O)c1
- Ki [1]: 110 nM

Compound: CONC(=O)Nc1ccc(-c2sc3c(c2CN(C)Cc2ccccc2)c(=O)n(-c2ccccc2)c(=O)n3Cc2c(F)cccc2F)cc1 [SUFUGOLIX]
- Activity [2]: 11%
- Cmax [3]: 274 ng/mL
- Cmax [4]: 15 ng/mL
- Activity [5]: 18%
- AUC(0-t) at 8 h [6]: 173 ng·h/mL
- Activity [7]: 36 nM
- AUC(0-t) at 8 h [8]: 2560 ng·h/mL
- IC50 [9]: 0.6 nM
- AUC(0-t) at 6 h [10]: 0.85 µM·h
- IC50 [11]: 10 nM

Compound: CCc1nc(C)c(CN2CCN(c3cccc4[nH]c(-c5ccc(C(C)(C)C)cc5)nc34)CC2)[nH]1
- IC50 [12]: 6.6 nM

Compound: N[C@@H](Cn1c(=O)c(-c2ccccc2F)c2n(c1=O)C(c1ccccc1F)CO2)c1ccccc1 (stereo partly drawn)
- Ki [1]: 230 nM

Compound: N[C@@H](Cn1c(=O)c(-c2ccccc2F)c2n(c1=O)C(c1ccccc1)CS2)c1ccccc1 (stereo partly drawn)
- Ki [1]: 230 nM

Compound: N[C@@H](Cn1c(=O)c(-c2ccccc2F)c2n(c1=O)[C@@H](c1ccccc1)CS2)c1ccccc1
- Ki [1]: 110 nM

Compound: COc1cccc(-c2c3n(c(=O)n(C[C@H](N)c4ccccc4)c2=O)C(c2ccccc2F)CS3)c1Cl (stereo partly drawn)
- Ki [1]: 4.5 nM

Compound: Cc1cc(-c2c(OCC[C@@H]3CCN3)c3cc(C(=O)Nc4ccncn4)c(Cl)cc3[nH]c2=O)cc(C)c1C
- Activity [13]: 0.4 nM
- Ki [14]: 0.5 nM
- IC50 [15]: 7 nM

Compound: CSc1ccc(CN2CCc3c(c(=O)n(CCN(C)CCc4ccccn4)c(=O)n3Cc3c(F)cccc3F)C2)cc1
- Ki [1]: 15 nM

Compound: COc1cccc(-c2nn(Cc3c(F)cccc3C(F)(F)F)c(=O)n(C[C@H](N)c3ccccc3)c2=O)c1Cl
- Ki [1]: 2.3 nM

Compound: Cc1c(-c2ccccc2F)c(=O)n(C[C@H](N)c2ccccc2)c(=O)n1Cc1ccccc1F
- Ki [1]: 19 nM

Compound: COc1cccc(-c2c(C)n(Cc3c(F)cccc3[S+](C)[O-])c(=O)n(C[C@H](N)c3ccccc3)c2=O)c1F (stereo partly drawn)
- Ki [1]: 4.4 nM

Compound: Cc1cc(C)cc(-c2[nH]c3ccc(C(C)(C)C(=O)N4CC5CCC4CC5)cc3c2[C@H](C)CNCCc2ccncc2)c1
- Activity [16]: 114 nM
- IC50 [17]: 1.7 nM
- Activity [18]: 165 nM

Compound: CCCn1c(SCc2cc([N+](=O)[O-])ccc2OC)nc2cc(NC(=O)NC(C)(C)C)cc(C(=O)NC)c21
- IC50 [19]: 41000 nM

Compound: CN[C@@H](Cc1ccccc1)Cn1c(=O)c(-c2cccc(OC)c2F)c(C)n(Cc2c(F)cccc2F)c1=O
- bioavailability [20]: 22%

Compound: COc1cccc(-c2c(C)n(Cc3c(F)cccc3C(F)(F)F)c(=O)n(C[C@H](N)c3ccccc3)c2=O)c1F
- Ki [1]: 0.5 nM

Compound: CCSc1nc2cc(NC(=O)C3CC3)ccc2n1C(C)C
- IC50 [19]: 10000 nM

Compound: CC(C)(C)NC(=O)NCCc1nc2cc(S(=O)(=O)NCc3ccc(Cl)cc3)ccc2n1Cc1ccccc1
- IC50 [19]: < 10 nM

Compound: COc1cc(OC)c(NC(=O)c2ccc(Cc3cc4c(cc3C)C(C)(C)CCC4(C)C)o2)c(OC)c1
- Ki [21]: 3.8 nM
- Activity [22]: 99.9%

Compound: CCn1cc(CN2CCN(c3cccc4[nH]c(-c5ccc(C(C)(C)C)cc5)nc34)CC2)c(=O)[nH]c1=O
- IC50 [21]: 18 nM
- bioavailability [23]: 72%
- IC50 [12]: 1.6 nM

Compound: CC(C)(C)c1ccc(-c2nc3c(N4CCN(Cc5ccnc(S(C)(=O)=O)n5)CC4)cccc3[nH]2)cc1
- IC50 [12]: 5.2 nM

Compound: COc1cccc(-c2c3n(c(=O)n(C[C@H](N)c4ccccc4)c2=O)C(c2ccccc2F)CS3)c1F (stereo partly drawn)
- Ki [1]: 40 nM

Compound: Cc1cc(C)cc(-c2[nH]c3c(c2[C@H](C)CNCCc2ccc(-c4nnn[nH]4)cc2)CN(C(=O)Cc2c(F)cccc2C(F)(F)F)CC3)c1
- IC50 [24]: 0.2 nM

Compound: COc1cccc(-c2c(C)n(Cc3c(F)cccc3F)c(=O)n(CC(C)(N)c3ccccc3)c2=O)c1F (stereo not drawn)
- Ki [1]: 23 nM

Compound: CC[C@H]1OC(=O)[C@H](C)[C@@H](OC(=O)N2C(=O)OC[C@@H]2C)[C@H](C)[C@@H](O[C@@H]2O[C@H](C)C[C@H](N(C)CC3CC3)[C@H]2O)[C@@](C)(OC)C[C@@H](C)C(=O)[C@H](C)[C@H]2N(CCc3ccc(Cl)c(Cl)c3)C(=O)O[C@]12C
- Kb [25]: 1.58 nM
- Activity [26]: 20%

Compound: CCSc1nc2cc(S(=O)(=O)NCc3ccccc3OC)ccc2n1Cc1ccccc1
- IC50 [19]: 3400 nM

Compound: FC(F)(F)c1nc2c(N3CCN(CCOc4cccc5[nH]c(=S)[nH]c45)CC3)cccc2[nH]1
- IC50 [12]: 800 nM

Compound: N[C@@H](Cn1c(=O)c(-c2ccccc2F)c2n(c1=O)C(c1ccccc1F)CS2)c1ccccc1 (stereo partly drawn)
- Ki [1]: 220 nM

Compound: N[C@@H](Cn1c(=O)c(Cc2c(F)cccc2F)nn(-c2ccccc2F)c1=O)c1ccccc1
- Ki [1]: 580 nM

Compound: COc1cccc(-c2c(C)n(Cc3c(F)cccc3F)c(=O)n(C[C@H](N)c3ccccc3)c2=O)c1F
- Activity [27]: 32%
- half-life [28]: 2.7 h
- Tmax [29]: 0.4 h

Compound: COc1cccc(-c2nn(Cc3c(F)cccc3C(F)(F)F)c(=O)n(C[C@H](N)c3ccccc3)c2=O)c1F
- Ki [1]: 13 nM

Compound: COc1cccc(-c2c(C)n(Cc3c(F)cccc3S(C)(=O)=O)c(=O)n(C[C@H](N)c3ccccc3)c2=O)c1F
- Ki [1]: 0.2 nM

Compound: C=C1C(Cl)=CC=C1c1c(C)n(Cc2c(F)cccc2F)c(=O)n(C[C@H](N)c2ccccc2)c1=O
- Ki [1]: 14 nM

Compound: COc1cccc(-c2c(C)n(Cc3c(F)cccc3F)c(=O)n(C[C@H](C)N(C)CCc3ccccn3)c2=O)c1
- Ki [1]: 470 nM
